Test [1] has as its system MOLP-8 human multiple myeloma xenografts. Put plainly: MOLP-8 human multiple myeloma xenograft in CB.17 SCID mice (Xenograft Mouse Experiments A, Part I). The class given is in vivo. The protocol: In these mice, subcutaneous tumors were established (female CB.17 SCID mice) by inoculation with MOLP-8 cell suspensions. Treatment with a single bolus intravenous injection was conducted when tumor volumes reached an average 113 mm^3. Changes in tumor volume and body weight were monitored twice per week.
Female CB.17 SCID mice, five weeks old, were obtained from Charles River Laboratories.
MOLP-8, a human multiple myeloma cell line, was supplied from ATCC.
Each mouse was inoculated with 1×10^7 MOLP-8 cells subcutaneously into the area under the right shoulder. The total volume was 0.2 ml per mouse, in which the ratio of serum-free medium to matrigel (BD Bioscience, Bedford, Mass.) was 1/1 (v/v). Prior to treatment, the xenograft tumors were monitored daily and were allowed to become established.
Eleven days after tumor cell inoculation, 42 mice were selected based on tumor volumes and body weights. […] The forty-two mice were randomly divided into seven groups (A-G) of six animals each based on tumor volume.
Each of six mice in Group A received 200 μl of PBS as vehicle control.
All agents were intravenously administered as a single bolus injection through a lateral tail vein with a 1 ml syringe fitted with a 27 gauge, ½ inch needle.
(§1) Tumor size was measured twice per week in three dimensions using the LabCat System (Tumor Measurement and Tracking, Innovative Programming Associated, Inc., Princeton, N.J.). The tumor volume in mm^3 was calculated using the methodology described in Tomayko et al., Cancer Chemother.

For a further test, the system named is MOLP-8 tumor xenografts. Nature of the test: Bulky MOLP-8 tumor xenograft model in SCID mice (Part II / Xenograft Mouse Experiments B). The class given is in vivo. The note with it: 450 μg/kg dose; mean time to reach 160 mm^3 minus mean time of control group. The protocol:
In a second set of experiments, MOLP-8 cells (1.5×10^7 cells per mouse), suspended in a 50:50 mixture of serum free media and matrigel were injected subcutaneously in the area under the right shoulder in 100 μl. […] Each mouse in the control group (n=6) received 0.2 ml of sterile PBS administered into the lateral tail vein (i.v.) in a bolus injection. All treatment doses were based on conjugated maytansinoid. […] Mice were randomized into eleven groups (n=6) by tumor volume using the LabCat Program. […] The mice were dosed based on the individual body weight.
as §1
In this set of experiments, eighty-five mice were inoculated with MOLP-8 cells (1.5×10^7 cells/mouse) subcutaneously in the right shoulder.

The source of these data is patent US9221914B2, “Agents targeting CD138 and uses thereof” (BIOTEST AG, priority 2007, dated 2015).

B-B4-SPP-DM1 [reference compound]: the “homogeneity of anti-tumor activity in individual mice” value in test [1] (250 μg/kg single i.v. dose) was “more heterogeneously and therefore less predicable”. In addition, in test [1] (250 μg/kg single i.v. dose, data not shown), the “median tumor volume over time post-inoculation” value is listed as “relatively better results for B-B4-SPP-DM1 than for nBT062-SPP-DM1”. The “effect on tumor growth compared with PBS-treated animals” value in test [1] (single i.v. bolus, 250 μg/kg (nBT062 antibody […])) is given as “marked delay in tumor growth”.
For the substance “nBT062-DM1: nBT062 conjugate with DM1, linker not stated at this place; TGD matches nBT062-SMCC-DM1”, the “TGD (days), tumor growth delay” value in the test with MOLP-8 tumor xenografts is reported as 18 days.
